Test results published in patent US20050191348A1 (priority 2004, published 2005).

What was measured:
rat brain MAO-A = target: T1, rat brain MAO-A (Rattus norvegicus, UniProt P21396); test: In vitro inhibition of rat brain MAO-A; format: biochemical; conditions: rat brain homogenate, 60 min preincubation at 37° C., 14C-5-hydroxytryptamine
T1 construct: from tissue; host or cells: rat brain homogenate
T1 sequence (P21396 1-526): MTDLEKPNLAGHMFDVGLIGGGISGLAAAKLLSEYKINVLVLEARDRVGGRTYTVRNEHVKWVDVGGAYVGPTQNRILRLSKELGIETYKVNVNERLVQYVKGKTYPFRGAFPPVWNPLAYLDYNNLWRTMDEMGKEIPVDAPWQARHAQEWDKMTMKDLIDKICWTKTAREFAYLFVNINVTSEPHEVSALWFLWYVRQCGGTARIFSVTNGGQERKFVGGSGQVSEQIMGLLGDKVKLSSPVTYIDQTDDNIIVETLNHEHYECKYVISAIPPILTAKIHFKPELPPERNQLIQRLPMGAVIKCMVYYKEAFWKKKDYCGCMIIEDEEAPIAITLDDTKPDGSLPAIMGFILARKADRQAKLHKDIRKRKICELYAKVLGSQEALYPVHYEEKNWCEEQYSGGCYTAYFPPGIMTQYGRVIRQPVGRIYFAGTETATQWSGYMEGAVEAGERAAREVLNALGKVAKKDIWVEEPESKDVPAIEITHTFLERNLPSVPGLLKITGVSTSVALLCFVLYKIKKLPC
Experimental: (§1) To determine the activity of MAO-A and MAO-B, the test compound is added to a suitable dilution of the enzyme preparation from rat brain (70 μg protein for MAO-B and 150 μg MAO-A assay) in 0.05 M phosphate buffer (pH 7.4). Tthe mixture is incubated together with […], a specific inhibitor of MAO-B (for determination of MAO-A) or with […], a specific inhibitor of MAO-A (for determination of MAO-B). Incubation is carried for 1 h at 37° C. before addition of ^14C-5-hydroxytryptamine binoxalate ([…]), for determination of MAO-A, or ^14C-phenylethylamine ([…]), for determination of MAO-B, and incubation is continued for 30 min or 20 min, respectively. The reaction is stopped with 2 M ice-cold citric acid, and the metabolites are extracted and determined by liquid-scintillation counting in cpm units.
Thus, in one experiment, the in vitro inhibitory activity of 5-(4-propargylpiperazin-1-ylmethyl)-8-hydroxy-quinoline (HLA20) and the 8-hydroxyquinoline derivative designated M32 (both iron chelators disclosed in the International Application PCT/IL03/00932), and propargylamine (P) (0.1, 1, 10, 100 μM) were tested against rat brain MAO-A. The test compounds were added to buffer containing 0.05 μM deprenyl and were incubated with the tissue homogenate for 60 min at 37° C. before addition of ^14C-5-hydroxytryptamine. […]

rat brain MAO-B = target: T2, rat brain MAO-B (Rattus norvegicus, UniProt P19643); test: In vitro inhibition of rat brain MAO-B; format: biochemical
T2 construct: from tissue; host or cells: rat brain homogenate
T2 sequence (P19643 1-520): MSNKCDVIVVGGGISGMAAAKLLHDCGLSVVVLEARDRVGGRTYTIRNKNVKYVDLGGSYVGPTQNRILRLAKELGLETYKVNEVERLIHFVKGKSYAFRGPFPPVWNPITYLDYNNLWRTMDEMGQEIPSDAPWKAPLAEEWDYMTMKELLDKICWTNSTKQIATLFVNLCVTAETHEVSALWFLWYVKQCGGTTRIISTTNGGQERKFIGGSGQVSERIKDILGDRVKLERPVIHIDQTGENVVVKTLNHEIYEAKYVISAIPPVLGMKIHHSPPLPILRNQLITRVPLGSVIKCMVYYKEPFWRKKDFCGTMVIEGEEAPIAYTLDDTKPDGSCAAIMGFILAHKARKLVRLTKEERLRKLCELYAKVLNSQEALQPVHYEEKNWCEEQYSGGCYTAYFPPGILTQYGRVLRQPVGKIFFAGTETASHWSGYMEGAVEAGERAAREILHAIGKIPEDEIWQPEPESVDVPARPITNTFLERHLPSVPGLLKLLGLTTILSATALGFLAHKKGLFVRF
Experimental: as §1
In another experiment, the in vitro inhibitory activity of propargylamine (P) against rat brain MAO-B was tested. Propargylamine (0.1, 1, 10, 100 μM) was added to buffer containing 0.05 μM clorgylin and was incubated with the tissue homogenate for 60 minutes at 37° C. before addition of ^14C-5-phenylethylamine. MAO-BA activity in presence of the test compound was expressed as a percentage of that in control samples. Mean values shown±SEM.

SMILES: C#CCN [propargylamine]
- IC50 (rat brain MAO-A): ~66 µM
- MAO-B versus MAO-A selectivity (rat brain MAO-B; from IC50 values, rat brain): preferentially selective for MAO-B inhibition
- IC50 (rat brain MAO-B; rat brain homogenate, 60 min preincubation at 37° C., 14C-phenylethylamine): ~10 µM
